Earlier results in publication PMC6155437 (Molecules : A Journal of Synthetic Chemistry and Natural …, 2017).

What was measured:
CYP2C9 = target: T1, CYP2C9 (Homo sapiens, UniProt P11712); parameters: method as in PMID 22166891; conditions: CYP2C9-catalyzed diclofenac hydroxylation in human liver microsomes; cited from earlier work
T1 construct: tissue Corning Life Sciences; host or cells: pooled human liver microsomes (150 donors)

CYP2B6 = target: T2, CYP2B6 (Homo sapiens, UniProt P20813); parameters: method as in doi:10.1007/s11419-011-0112-7; conditions: CYP2B6 activity; cited from earlier work
T2 construct: pooled human liver microsomes (0.2 mg/mL); tissue Corning Life Sciences; host or cells: pooled human liver microsomes (150 donors)
T2 sequence (P20813 1-491): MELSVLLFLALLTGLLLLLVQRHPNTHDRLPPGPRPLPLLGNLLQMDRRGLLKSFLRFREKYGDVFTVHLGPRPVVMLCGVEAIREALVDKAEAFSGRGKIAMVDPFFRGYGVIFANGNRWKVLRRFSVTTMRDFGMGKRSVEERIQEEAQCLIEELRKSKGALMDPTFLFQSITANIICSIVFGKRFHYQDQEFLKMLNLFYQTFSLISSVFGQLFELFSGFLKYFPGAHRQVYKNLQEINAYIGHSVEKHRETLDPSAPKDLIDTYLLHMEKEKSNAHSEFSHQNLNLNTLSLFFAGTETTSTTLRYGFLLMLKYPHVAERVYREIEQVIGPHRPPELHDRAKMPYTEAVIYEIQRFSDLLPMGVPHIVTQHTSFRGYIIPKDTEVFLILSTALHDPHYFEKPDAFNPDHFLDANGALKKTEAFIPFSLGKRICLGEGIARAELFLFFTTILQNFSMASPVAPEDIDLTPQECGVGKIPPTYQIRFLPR

CYP3A4 = CYP3A4 (Homo sapiens, UniProt P08684); conditions: CYP3A4 activity; cited from earlier work
Chain of CYP3A4 (P08684 whole entry): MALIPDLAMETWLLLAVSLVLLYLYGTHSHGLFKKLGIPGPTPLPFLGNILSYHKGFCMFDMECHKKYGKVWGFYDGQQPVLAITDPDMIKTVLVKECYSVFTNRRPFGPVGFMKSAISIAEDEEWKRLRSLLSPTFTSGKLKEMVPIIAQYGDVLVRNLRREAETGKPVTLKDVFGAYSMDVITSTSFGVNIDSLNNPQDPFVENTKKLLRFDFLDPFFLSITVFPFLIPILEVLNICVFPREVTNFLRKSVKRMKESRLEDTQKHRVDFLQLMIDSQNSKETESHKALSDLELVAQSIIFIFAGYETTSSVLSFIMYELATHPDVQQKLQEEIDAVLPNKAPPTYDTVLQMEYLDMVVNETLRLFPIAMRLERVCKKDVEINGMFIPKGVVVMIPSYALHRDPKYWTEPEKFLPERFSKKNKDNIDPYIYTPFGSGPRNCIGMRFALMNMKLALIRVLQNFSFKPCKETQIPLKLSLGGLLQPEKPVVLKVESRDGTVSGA

T1 sequence (P11712 whole entry): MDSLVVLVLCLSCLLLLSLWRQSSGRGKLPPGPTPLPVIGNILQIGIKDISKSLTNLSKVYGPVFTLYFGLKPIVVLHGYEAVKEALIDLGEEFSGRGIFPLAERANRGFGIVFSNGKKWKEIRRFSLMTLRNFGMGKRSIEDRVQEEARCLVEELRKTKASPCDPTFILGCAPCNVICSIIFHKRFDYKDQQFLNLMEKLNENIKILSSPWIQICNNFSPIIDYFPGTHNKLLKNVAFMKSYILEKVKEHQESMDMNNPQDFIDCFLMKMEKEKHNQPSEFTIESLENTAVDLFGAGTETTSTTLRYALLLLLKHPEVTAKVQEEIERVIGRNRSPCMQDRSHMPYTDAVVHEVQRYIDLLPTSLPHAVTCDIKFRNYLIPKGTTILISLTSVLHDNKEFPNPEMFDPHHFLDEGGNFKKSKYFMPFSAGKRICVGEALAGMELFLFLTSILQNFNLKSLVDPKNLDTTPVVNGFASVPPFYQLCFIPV

Structure (SMILES) | Ki (CYP2C9) [nM] | Ki (CYP2B6) [nM] | IC50 (CYP3A4) [nM]
CCCCCc1cc(O)c2c(c1)OC(C)(C)[C@@H]1CCC(C)=C[C@@H]21 [THC, Δ9-tetrahydrocannabinol] | 1310 | 2810 | > 50000
CCCCCc1cc(O)c2c(c1)OC(C)(C)c1ccc(C)cc1-2 [cannabinol] | – | – | > 50000
